The source of these data is US20240279278A1, “NMU RECEPTOR 2 AGONISTS” (Boehringer Ingelheim International GmbH, priority 2023, published 2024).

By Ki is commonly meant a dissociation constant, usually derived from enzyme kinetics or from competition with a known ligand. Higher therefore signals a looser hold on the target. By EC50 is commonly meant the concentration needed to bring the measured effect to its halfway point.

Residues, ends and D or L forms follow the SMILES beside them.

The target of experiment [1] is T1, human NMUR2 receptor (Homo sapiens, UniProt Q9GZQ4). Put plainly: Radioligand binding competition assay (RLB), human NMUR2 receptor binding (SPA, [125I]-Neuromedin U-25). More on the design: host or cells: CHO-K1. The note with it: CHO-K1 hNMUR2 cell membranes, 4 hours at RT. The text has this:
Example 1: Radioligand Binding Competition Assay (RLB) Human NMUR2 Receptor Binding
The test is based on membranes prepared from a Human NMUR2/Apoaequorin Stable Cell Line (Creative Biogene, Cat. No. CSC-RG1309).
Cell Line Description: CHO-NMUR2 cell line is clonally derived from a CHO-K1 cell line, which has been transfected with a bicistronic expression plasmid containing the sequence coding for the human neuromedin U receptor 2 (AF242874.1). MOSAIC-ID: CL16550616.
Membrane preparation: Cells were broken by nitrogen cavitation (900 psi, 1 hour). Intact cells were removed by centrifugation (400 rcf (relative centrifugal force), 10 minutes, 4° C.) before the crude membrane fraction was collected by ultracentrifugation (20.000 rcf, 1 hour, 4° C.).
2) Human NMUR2 Receptor Binding Assay (Radioligand: [125I]-Neuromedin U-25 (Human))
In this Scintillation Proximity Assay (SPA) design, the membranes immobilize directly to the PVT-WGA-PEI type A beads (polyethyleneimine treated polyvinyltoluene beads coupled to wheatgerm agglutinin, Perkin Elmer) via interactions of wheat germ agglutinate and glycosylated membrane structures. Thereby the radioactively la-belled ligand, bound to NMUR2 receptors on the membrane, comes in close proximity to the solid scintillator of the PVT bead. Radioactive human neuromedin U-25 then stimulates the scintillant to emit light. In contrast, radioligand not bound to the receptor is too distant from the bead to elicit a signal.
For the Scintillation Proximity Assay the CHO-K1 hNMUR2 cell membranes and SPA-beads are diluted to concentrations, which assure a robust signal to background ratio. The SPA incubation buffer consists of 25 mM Hepes (pH=7.0), 5 mM MgCl2, 1 mM CaCl2, 10 ug/mL Saponine and 0.1% bovine serum albumin and is used for all dilutions.
Final assay setup in 96-well plate: 20 μL of 10× test compound dilutions+40 μL of 5× [125l]-Neuromedin U-25 (1× approx. 30 pM; 2000 μCi/mmol)+60 μL membrane dilution (approx. 2.5 μg membrane protein)+80 μL SPA bead dilution (0.75 mg).
The assay is incubated for 4 hours at RT, including controls for specific binding where no displacer is added and non-specific binding by adding unlabeled hNMU-25 at 100 nM. Bound radioactivity is determined by scintillation counting (MicroBeta Trilux 1450, Perkin Elmer, detection of 125I decay). […] The system assumes one binding site with no relevant radioligand depletion (<10%) and that the binding is reversible and at equilibrium.

Experiment [2] deals with T2, human NMUR1 receptor (Homo sapiens, UniProt Q9HB89).
T2 construct: expressed in transfected cells; host or cells: CHO-K1
T2 sequence (Q9HB89 1-426): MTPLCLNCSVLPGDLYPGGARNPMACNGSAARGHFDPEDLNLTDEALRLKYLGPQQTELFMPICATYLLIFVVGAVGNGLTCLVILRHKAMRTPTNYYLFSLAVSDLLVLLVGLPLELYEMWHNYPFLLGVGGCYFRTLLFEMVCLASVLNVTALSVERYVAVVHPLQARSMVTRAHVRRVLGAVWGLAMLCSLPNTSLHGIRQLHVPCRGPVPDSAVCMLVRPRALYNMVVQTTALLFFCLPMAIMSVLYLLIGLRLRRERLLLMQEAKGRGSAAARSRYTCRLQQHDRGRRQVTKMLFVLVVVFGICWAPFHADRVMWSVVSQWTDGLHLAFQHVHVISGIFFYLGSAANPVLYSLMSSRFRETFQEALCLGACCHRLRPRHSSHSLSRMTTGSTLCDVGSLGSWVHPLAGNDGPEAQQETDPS
Put plainly: IP1 Gq HTRF assay, activation of human NMUR1 in buffer. Format: cell-based. The note with it: CHO-K1 cells expressing human NMUR1, stimulation buffer with 0.1% BSA; read-out: EC50 (hNMUR1) buffer. A digest of the protocol: (§1)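 CHO-K1 cells stably expressing human NMUR1 or NMUR2, seeded 24 h before assay, stimulated with peptide agonists (8-point dose-response, 1% DMSO final) in HEPES/HBSS buffer with 50 mM LiCl and 0.1% BSA, pH 7.4, 1 h at 37 °C. IP1 accumulation read by HTRF competition (665/620 nm); EC50 from 4-parameter sigmoidal fit.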

Experiment [3] addresses T1, human NMUR2 receptor. Put plainly: IP1 Gq HTRF assay, activation of human NMUR2 in buffer. Format: cell-based. Further details: expressed in transfected cells; host or cells: CHO-K1. To be noted: CHO-K1 cells expressing human NMUR2, stimulation buffer with 0.1% BSA; read-out: EC50 (hNMUR2) buffer. The procedure, abridged: as §1

T1 sequence (Q9GZQ4 whole entry): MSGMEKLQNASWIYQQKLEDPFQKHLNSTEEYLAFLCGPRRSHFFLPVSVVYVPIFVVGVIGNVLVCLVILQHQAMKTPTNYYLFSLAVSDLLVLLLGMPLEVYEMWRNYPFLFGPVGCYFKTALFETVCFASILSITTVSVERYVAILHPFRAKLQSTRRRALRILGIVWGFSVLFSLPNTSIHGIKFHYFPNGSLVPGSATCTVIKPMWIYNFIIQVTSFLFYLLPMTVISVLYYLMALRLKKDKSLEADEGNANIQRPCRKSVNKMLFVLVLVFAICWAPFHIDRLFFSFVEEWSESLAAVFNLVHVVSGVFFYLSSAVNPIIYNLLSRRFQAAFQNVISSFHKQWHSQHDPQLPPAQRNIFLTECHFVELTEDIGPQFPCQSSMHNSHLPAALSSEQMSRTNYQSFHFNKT

In experiment [1], `CCCC[C@H](NC(=O)[C@H](CC(C)C)N(C)C(=O)[C@H](Cc1ccccc1)NC(=O)[C@H](Cc1ccc(O)cc1)NC(=O)CN1CCN(CCNC(=O)CN(C)C(=O)CN(C)C(=O)CN(C)C(=O)CN(C)C(=O)CN(C)C(=O)CN(C)C(=O)CN(C)C(=O)CN(C)C(=O)CN(C)C(=O)CC[C@H](NC(=O)CC[C@H](NC(=O)CC[C@H](NC(=O)CCCCCCCCCCCCCCCCC(=O)O)C(=O)O)C(=O)O)C(=O)O)CC1)C(=O)N[C@@H](CCN)C(=O)N1CCC[C@H]1C(=O)N[C@@H](CCCNC(=N)N)C(=O)NCC(N)=O` [Compound 24, C18DA-gGlu3-Sar9-AEPipAc-Tyr-Phe-NMeLeu-Nle-Dbu-Pro-Arg-Gly-NH2] (HELM PEPTIDE1{[O=C(O)CCCCCCCCCCCCCCCCC(=O)[*:2]].[gGlu].[gGlu].[gGlu].[Sar].[Sar].[Sar].[Sar].[Sar].[Sar].[Sar].[Sar].[Sar].[O=C(CN1CCN(CCN[*:1])CC1)[*:2]].Y.F.[meL].[Nle].[Dab].P.R.G.[am]}$$$$V2.0) showed a Ki of 52.3 nM. In addition, the EC50 in experiment [2] came to 1000 nM; in experiment [3], 1.4 nM.

With `CCCC[C@H](NC(=O)[C@H](CC(C)C)N(C)C(=O)[C@H](Cc1ccccc1)NC(=O)[C@H](Cc1ccc(O)cc1)NC(=O)CN1CCN(CCNC(=O)CN(C)C(=O)CN(C)C(=O)CN(C)C(=O)CN(C)C(=O)CN(C)C(=O)CN(C)C(=O)CN(C)C(=O)CN(C)C(=O)CN(C)C(=O)CN(C)C(=O)CN(C)C(=O)CN(C)C(=O)CC[C@H](NC(=O)CC[C@H](NC(=O)CC[C@H](NC(=O)CCCCCCCCCCCCCCCCC(=O)O)C(=O)O)C(=O)O)C(=O)O)CC1)C(=O)N[C@@H](CCCNC(=N)N)C(=O)N1CCC[C@H]1C(=O)N[C@@H](CCCNC(=N)N)C(=O)NCC(N)=O` [Compound 25, C18DA-gGlu3-Sar12-AEPipAc-Tyr-Phe-NMeLeu-Nle-Arg-Pro-Arg-Gly-NH2], affinity in experiment [1] was put at a Ki of 23.1 nM. Also, the values for the EC50 in experiment [2] and in experiment [3] were 200 nM and 1.1 nM, respectively.

As to `CCCC[C@H](NC(=O)[C@H](CC(C)C)N(C)C(=O)[C@H](Cc1ccccc1)NC(=O)[C@H](Cc1ccc(O)cc1)NC(=O)CN1CCN(CCNC(=O)CN(C)C(=O)CN(C)C(=O)CN(C)C(=O)CN(C)C(=O)CN(C)C(=O)CN(C)C(=O)CN(C)C(=O)CN(C)C(=O)CN(C)C(=O)CN(C)C(=O)CN(C)C(=O)CN(C)C(=O)CN(C)C(=O)CN(C)C(=O)CN(C)C(=O)CC[C@H](NC(=O)CC[C@H](NC(=O)CC[C@H](NC(=O)CCCCCCCCCCCCCCCCC(=O)O)C(=O)O)C(=O)O)C(=O)O)CC1)C(=O)N[C@@H](CCN)C(=O)N1CCC[C@H]1C(=O)N[C@@H](CCCNC(=N)N)C(=O)NCC(N)=O` [Compound 26, C18DA-gGlu3-Sar15-AEPipAc-Tyr-Phe-NMeLeu-Nle-Dbu-Pro-Arg-Gly-NH2] (HELM PEPTIDE1{[O=C(O)CCCCCCCCCCCCCCCCC(=O)[*:2]].[gGlu].[gGlu].[gGlu].[Sar].[Sar].[Sar].[Sar].[Sar].[Sar].[Sar].[Sar].[Sar].[Sar].[Sar].[Sar].[Sar].[Sar].[Sar].[O=C(CN1CCN(CCN[*:1])CC1)[*:2]].Y.F.[meL].[Nle].[Dab].P.R.G.[am]}$$$$V2.0), in experiment [1], the affinity, expressed as Ki, was 48.1 nM. In addition, the EC50 is more than 1000 nM in experiment [2] and 1.5 nM in experiment [3].

`CCCC[C@H](NC(=O)[C@H](CC(C)C)N(C)C(=O)[C@H](Cc1ccccc1)NC(=O)[C@H](Cc1ccc(O)cc1)NC(=O)CN1CCN(CCNC(=O)CN(C)C(=O)CN(C)C(=O)CN(C)C(=O)CN(C)C(=O)CN(C)C(=O)CN(C)C(=O)CN(C)C(=O)CN(C)C(=O)CN(C)C(=O)CN(C)C(=O)CN(C)C(=O)CN(C)C(=O)CC[C@H](NC(=O)CC[C@H](NC(=O)CC[C@H](NC(=O)CCCCCCCCCCCCCCCCC(=O)O)C(=O)O)C(=O)O)C(=O)O)CC1)C(=O)N[C@@H](CCN)C(=O)N1CCC[C@H]1C(=O)N[C@@H](CCCNC(=N)N)C(=O)NCC(N)=O` [Compound 27, C18DA-gGlu3-Sar12-AEPipAc-Tyr-Phe-NMeLeu-Nle-Dbu-Pro-Arg-Gly-NH2] yielded an inhibition constant Ki in experiment [1] of 23.4 nM. The EC50 was determined as 1700 nM in experiment [2] and 1.2 nM in experiment [3].

With `CCCC[C@H](NC(=O)[C@H](CC(C)C)N(C)C(=O)[C@H](Cc1ccccc1)NC(=O)[C@H](Cc1ccc(O)cc1)NC(=O)CN1CCN(CCNC(=O)CN(C)C(=O)CN(C)C(=O)CN(C)C(=O)CN(C)C(=O)CN(C)C(=O)CN(C)C(=O)CN(C)C(=O)CN(C)C(=O)CN(C)C(=O)CC[C@H](NC(=O)CC[C@H](NC(=O)CC[C@H](NC(=O)CCCCCCCCCCCCCCCCC(=O)O)C(=O)O)C(=O)O)C(=O)O)CC1)C(=O)N[C@@H](CCN)C(=O)N(C)[C@@H](C)C(=O)N[C@@H](CCCNC(=N)N)C(=O)NCC(N)=O` [Compound 28, C18DA-gGlu3-Sar9-AEPipAc-Tyr-Phe-NMeLeu-Nle-Dbu-NMeAla-Arg-Gly-NH2] (HELM PEPTIDE1{[O=C(O)CCCCCCCCCCCCCCCCC(=O)[*:2]].[gGlu].[gGlu].[gGlu].[Sar].[Sar].[Sar].[Sar].[Sar].[Sar].[Sar].[Sar].[Sar].[O=C(CN1CCN(CCN[*:1])CC1)[*:2]].Y.F.[meL].[Nle].[Dab].[meA].R.G.[am]}$$$$V2.0), the Ki in experiment [1] is 56.2 nM. Moreover, the EC50 is more than 1000 nM in experiment [2] and 1.4 nM in experiment [3].

In the case of `CCCC[C@H](NC(=O)[C@H](CC(C)C)N(C)C(=O)[C@H](Cc1ccccc1)NC(=O)[C@H](Cc1ccc(O)cc1)NC(=O)CN1CCN(CCNC(=O)CN(C)C(=O)CN(C)C(=O)CN(C)C(=O)CN(C)C(=O)CN(C)C(=O)CN(C)C(=O)CN(C)C(=O)CN(C)C(=O)CN(C)C(=O)CN(C)C(=O)CN(C)C(=O)CN(C)C(=O)CC[C@H](NC(=O)CC[C@H](NC(=O)CC[C@H](NC(=O)CCCCCCCCCCCCCCCCC(=O)O)C(=O)O)C(=O)O)C(=O)O)CC1)C(=O)N[C@@H](CCN)C(=O)N(C)[C@@H](C)C(=O)N[C@@H](CCCNC(=N)N)C(=O)NCC(N)=O` [Compound 38, C18DA-gGlu3-Sar12-AEPipAc-Tyr-Phe-NMeLeu-Nle-Dbu-NMeAla-Arg-Gly-NH2], the Ki in experiment [1] was determined as 33.8 nM. For the same molecule, the EC50 in experiment [2] was more than 1000 nM; in experiment [3] it was 1.9 nM.

On to `CCCC[C@H](NC(=O)[C@H](CC(C)C)N(C)C(=O)[C@H](Cc1ccccc1)NC(=O)[C@H](Cc1ccc(O)cc1)NC(=O)CN1CCN(CCNC(=O)CN(C)C(=O)CN(C)C(=O)CN(C)C(=O)CN(C)C(=O)CN(C)C(=O)CN(C)C(=O)CN(C)C(=O)CN(C)C(=O)CN(C)C(=O)CN(C)C(=O)CN(C)C(=O)CN(C)C(=O)CN(C)C(=O)CN(C)C(=O)CN(C)C(=O)CC[C@H](NC(=O)CC[C@H](NC(=O)CC[C@H](NC(=O)CCCCCCCCCCCCCCCCCCC(=O)O)C(=O)O)C(=O)O)C(=O)O)CC1)C(=O)N[C@@H](CCN)C(=O)N1CCC[C@H]1C(=O)N[C@@H](CCCNC(=N)N)C(=O)NCC(N)=O` [Compound 42, C20DA-gGlu3-Sar15-AEPipAc-Tyr-Phe-NMeLeu-Nle-Dbu-Pro-Arg-Gly-NH2] (HELM PEPTIDE1{[O=C(O)CCCCCCCCCCCCCCCCCCC(=O)[*:2]].[gGlu].[gGlu].[gGlu].[Sar].[Sar].[Sar].[Sar].[Sar].[Sar].[Sar].[Sar].[Sar].[Sar].[Sar].[Sar].[Sar].[Sar].[Sar].[O=C(CN1CCN(CCN[*:1])CC1)[*:2]].Y.F.[meL].[Nle].[Dab].P.R.G.[am]}$$$$V2.0), for which the Ki in experiment [1] was 23.7 nM. The figures for the EC50 in experiment [2] and in experiment [3] were 1500 nM and 3.2 nM, respectively.
